Measurements taken from patent US10226509B2, “Lymphangiogenesis inhibitors for cancer and for graft survival” (TUFTS UNIVERSITY, priority 2014, dated 2019).
Entries after “also recorded” stand apart in the source; their conditions may differ.

How the values were obtained:
[1] = tested on: Gal-8-induced LEC sprouting; test: LEC sprouting assay: Gal-8-induced sprouting with inhibitors or knockdown; type: cell-based, human; settings: Gal-8 0.75 μM, 24 h; TDG 20 mM; LY294002 20 μM; U0126 20 μM; PD0325901 1 μM; Avastin 10 μg/ml; Obtustatin 4 μM; antibodies 20 μg/ml; siRNA-transfected LECs
Protocol: LEC spheroids were generated by seeding primary LECs at passage 4 or 5 in each well of 384-well hanging-drop plates (3D Biomatrix) in complete EGM-2 MV medium containing 0.25% methyl cellulose according to the manufacturer's instructions (750 cells/well). After 18 hours, LEC spheroids were collected, resuspended in serum-free EBM-2 basal medium, and mixed with collagen solution (PureCol collagen, Advanced BioMatrix, 2.2 mg/ml in M199 medium, pH adjusted to 7.4 with NaHCO3 and NaOH). Aliquots of the LEC spheroid/collagen mixture (250 μl/well of 48-well plate) were incubated in the presence or absence of various test agents for 24 hr. At the end of the incubation period, spheroids were stained with Calcein AM (Invitrogen, 1 μg/mL, 37° C., and 30 min). Fluorescent images were acquired using the EVOS FL cell imaging system, pixels were inverted for better visualization and cumulative length of each sprout was calculated. Results were expressed as fold change compared to corresponding controls. […] Test agents used included thiodigalactoside (10 to 50 mM, Carbosynth), 3′-sialyl lactose (2 to 10 mM, Carbosynth), 6′-sialyl lactose (2 to 10 mM, Carbosynth), LY294002 (20 μM, Abeam), U0126 (20 μM, Abeam), PD0325901 (1 μM, Selleckchem), human VEGFR-3-Fc chimera (10 μg/ml, R&D), human VEGFR-2-Fc chimera (10 μg/ml, R&D), Avastin (10 μg/ml, bevacizumab, Genentech/Roche), human control IgG (10 μg/ml, Southern Biotech), anti-human podoplanin functional grade antibody (10 μg/ml, eBioscience), and rat IgG2a κ isotype control functional grade antibody (10 μg/ml, eBioscience).
To determine the role of these pathways on Gal-8-induced lymphangiogenesis, LEC spheroids were stimulated with Gal-8 (0.75 μM) in the presence or absence of PI3K inhibitor (LY294002, 20 μM) and two different MEK inhibitors (U0126, 20 μM; PD0325901, 1 μM). After overnight treatment with Gal-8, accumulated sprout lengths were quantified.

[2] = tested on: VEGF-C-induced LEC sprouting; test: LEC sprouting assay: VEGF-C-induced sprouting; type: cell-based, human
Protocol: LEC spheroids were generated by seeding primary LECs at passage 4 or 5 in each well of 384-well hanging-drop plates (3D Biomatrix) in complete EGM-2 MV medium containing 0.25% methyl cellulose according to the manufacturer's instructions (750 cells/well). After 18 hours, LEC spheroids were collected, resuspended in serum-free EBM-2 basal medium, and mixed with collagen solution (PureCol collagen, Advanced BioMatrix, 2.2 mg/ml in M199 medium, pH adjusted to 7.4 with NaHCO3 and NaOH). Aliquots of the LEC spheroid/collagen mixture (250 μl/well of 48-well plate) were incubated in the presence or absence of various test agents for 24 hr. At the end of the incubation period, spheroids were stained with Calcein AM (Invitrogen, 1 μg/mL, 37° C., and 30 min). Fluorescent images were acquired using the EVOS FL cell imaging system, pixels were inverted for better visualization and cumulative length of each sprout was calculated. Results were expressed as fold change compared to corresponding controls. It was observed that sprout lengths vary from passages to passages. Test agents used included thiodigalactoside (10 to 50 mM, Carbosynth), 3′-sialyl lactose (2 to 10 mM, Carbosynth), 6′-sialyl lactose (2 to 10 mM, Carbosynth), LY294002 (20 μM, Abeam), U0126 (20 μM, Abeam), PD0325901 (1 μM, Selleckchem), human VEGFR-3-Fc chimera (10 μg/ml, R&D), human VEGFR-2-Fc chimera (10 μg/ml, R&D), Avastin (10 μg/ml, bevacizumab, Genentech/Roche), human control IgG (10 μg/ml, Southern Biotech), anti-human podoplanin functional grade antibody (10 μg/ml, eBioscience), and rat IgG2a κ isotype control functional grade antibody (10 μg/ml, eBioscience).
In this assay, the LEC spheroids were treated with VEGF-C (50 ng/ml) in the presence or absence of 0.75 μM of Gal-8 for 24 hours, and then accumulated sprout lengths were quantified. […] Synergistic effect of Gal-8 on VEGF-C-induced LEC sprouting was dose-dependent. […] At concentrations >0.5 μM Gal-8, there was no further increase in the degree of VEGF-C-induced lymphangiogenesis (FIG. 4C).
To further characterize the role of carbohydrate-mediated recognition in VEGF-C-induced lymphangiogenesis, LEC spheroids were stimulated with VEGF-C (50 ng/ml) in the presence or absence of three different galectin inhibitors. […] Therefore, the data establishes the critical role of Gal-8-mediated carbohydrate-mediated recognition in VEGF-C-induced lymphangiogenesis.

mouse corneas [3] = test: Mouse model of suture-induced inflammatory corneal lymphangiogenesis; type: in vivo; settings: subconjunctival injections days 0, 2, 4, 6; TDG 200 mM; Gal-8N 15 μg; Prox1-EGFP mice
Description: The mouse model of suture-induced lymphangiogenesis was used as described in Cho, Y. K., et al. 2012. Invest Ophthalmol Vis Sci 53:685-692 and Cursiefen, C., et al. 2004. Invest Ophthalmol Vis Sci 45:1117-1124. Two 11-0 sutures were placed intrastromally about 2 mm from the limbus at the 12 and 6 o'clock positions in the Prox1-EGFP reporter mice. After surgery, a veterinary ophthalmic ointment was applied to prevent infection. Sutures were left in place for 7 days. To assess the effect of galectin inhibitors on suture-induced lymphangiogenesis, 10 μL of vehicle (PBS), TDG (200 mM in PBS), or Gal-8N (15 μg in PBS) were subconjunctivally injected on post-surgery days 0, 2, 4 and 6 using a 32 gauge needle with a 10 μL syringe (Hamilton). On day 7 post-surgery, mouse corneas were harvested and processed for staining with anti-LYVE-1 as described in examples herein. The areas of lymphatic vessels covering the whole corneas were calculated.
There is much interest in finding ways to inhibit prolymphangiogenic factors as means of suppressing cancer metastasis, transplant rejection and chronic inflammation. To determine whether galectins can be targeted to control lymphangiogenesis, a well-established in vivo model of lymphangiogenesis was used. […] At the end of the treatment period, lymphatic vessel areas were quantified.

[4] = tested on: VEGF-A-induced LEC sprouting; test: LEC sprouting assay: VEGF-A-induced sprouting; type: cell-based, human; settings: VEGF-A 50 ng/ml; 10 μg/ml
Protocol: LEC spheroids were generated by seeding primary LECs at passage 4 or 5 in each well of 384-well hanging-drop plates (3D Biomatrix) in complete EGM-2 MV medium containing 0.25% methyl cellulose according to the manufacturer's instructions (750 cells/well). After 18 hours, LEC spheroids were collected, resuspended in serum-free EBM-2 basal medium, and mixed with collagen solution (PureCol collagen, Advanced BioMatrix, 2.2 mg/ml in M199 medium, pH adjusted to 7.4 with NaHCO3 and NaOH). Aliquots of the LEC spheroid/collagen mixture (250 μl/well of 48-well plate) were incubated in the presence or absence of various test agents for 24 hr. […] Fluorescent images were acquired using the EVOS FL cell imaging system, pixels were inverted for better visualization and cumulative length of each sprout was calculated. Results were expressed as fold change compared to corresponding controls. […]
In addition, investigations were performed to determine whether VEGF-A/VEGFR-2 pathway, which also promotes lymphangiogenesis, is involved in Gal-8-mediated lymphangiogenesis. LEC spheroids were stimulated with Gal-8 (0.75 μM) in the presence or absence of VEGFR-3-Fc, VEGFR-2-Fc (10 μg/ml), Avastin (bevacizumab) (10 μg/ml) or control IgG (10 μg/ml) for 24 hours and then accumulated sprout lengths were quantified. […]

mouse corneas [5] = test: Corneal mouse micropocket lymphangiogenesis assay; type: in vivo; settings: for mean lymphatic vessel areas: seven days
Protocol: The corneal micropocket lymphangiogenesis assay was performed using implants containing a test agent, hydron (polyhydroxylmethylmethacrylate), and sucralfate (Cao, R., et al. 2011. Nat Protoc 6:817-826; Rogers, M. S., et al. 2007. Nat Protoc 2:2545-2550). Test agents included full-length Gal-8 (40-320 ng/pellet) and VEGF-C (160 ng/pellet). Implants containing hydron and sucralfate alone served as negative controls. The mice were anesthetized by intraperitoneal injection of a mixture of ketamine (90-120 mg/kg) and xylazine (10 mg/kg). The eyes were topically anesthetized with proparacaine and were gently proptosed (forwardly displaced) with forceps. Using a corneal blade and a stereoscope, intrastromal linear keratotomy was performed about 2 mm from the limbus. Using a von Graefe knife (Miltex), a pocket was extended towards the limbus, and the pellet was maneuvered into the pocket. The wound was coated with a veterinary ophthalmic ointment (Akorn) to prevent infection. Mouse corneas were harvested 7 days after pellet implantation, fixed in 4% paraformaldehyde/PBS (1 hour at 4° C.), washed with PBS, and fixed again in iced acetone (15 min at −20° C.). To quantitate the extent of lymphangiogenesis in Prox-1-EGFP reporter mice, flat mounts of the dissected corneas were evaluated by fluorescence microscopy. Fluorescent images were acquired by EVOS FL cell imaging system (Invitrogen), and vessel areas were calculated using the formula (Rogers, M. S., et al. 2007. Nat Protoc 2:2545-2550): vessel area=pellet distance×vessel length×clock hours×[…]. To quantitate the extent of lymphangiogenesis in WT and PDPN-deficient mice, corneas were stained with eFluor 570-anti-mouse LYVE-1 (clone ALY7, eBioScience, and 1:75) in 10% goat serum/0.2% Triton X-100/PBS overnight, 4° C. After several washes with 0.2% Triton X-100/PBS, the corneas were flattened and mounted with VECTASHIELD mounting medium (Vector Laboratories) and evaluated by fluorescence microscopy. In some examples, for comparisons, corneas were stained with Alexa Fluor® 488-anti-mouse CD31 (clone MEC13.3, 1:100, BioLegend) to visualize blood vessels.

PDPN = test: Cell surface expression of PDPN by flow cytometry; type: cell-based, human; settings: 30 min post-treatment; VEGF-C 50 ng/ml
Protocol: (§1) Primary LECs were serum-starved overnight in basal EBM-2 medium. The cells were incubated with or without VEGF-C (50 ng/ml, PeproTech) or Gal-8 (0.2 μM) in serum-free EBM-2 medium for 10 and 30 min. At the end of the incubation period, cells were lifted with StemPro® Accutase® cell dissociation reagent (Invitrogen), washed with PBS and fixed with 4% paraformaldehyde/PBS on ice for 10 min, and were then stained using rat anti-human PDPN (1:500, BioLegend) and mouse anti-human VEGFR-3 (clone 9D9F9) (1:100, BioLegend) primary antibodies in cell staining buffer (BioLegend, 45 min on ice) and Alexa Fluor® 488 donkey anti-rat and Alexa Fluor® 647 anti-mouse secondary antibodies (1:1000, Invitrogen, 30 min on ice). For negative control, the primary antibodies were omitted. The stained cells were fixed with 2% paraformaldehyde/PBS, analyzed with BD FACSCalibur, and the mean fluorescence intensity of VEGFR-3 and PDPN were quantified with the FlowJo software (version 9.5.2).

VEGFR-3 = test: Cell surface expression of VEGFR-3 by flow cytometry; type: cell-based, human; settings: Gal-8 0.2 μM or VEGF-C 50 ng/ml
Protocol: as §1

Molecule	effect on Gal-8-induced LEC sprouting (in words) [1]	effect on VEGF-C-induced LEC sprouting (in words) ([2]; VEGF-C 50 ng/ml, 24 h)	effect on the synergistic effect of Gal-8 on VEGF-C-induced sprouting ([2]; VEGF-C plus Gal-8)	effect on suture-induced corneal lymphangiogenesis (mouse corneas [3])	effect on VEGF-A-induced LEC sprouting (in words) [4]	extent of vessel formation in galectin-8 KO mice compared to WT (mouse corneas [5]; 160 ng pellet, one week)	mean lymphatic vessel areas (mouse corneas [5]; PDPN KO mice, 160 ng pellet)	mean lymphatic vessel areas (mouse corneas [5]; WT mice, 160 ng pellet)	lymphangiogenesis induced by pellet in cornea (in words) (mouse corneas [5]; one week after implantation, Gal-8 40-320 ng/pellet, VEGF-C 160 ng, WT or Prox1-EGFP mice)	decrease of cell surface expression of PDPN (PDPN)	decrease of cell surface expression of VEGFR-3 (VEGFR-3)
OC[C@H]1O[C@@H](S[C@@H]2O[C@H](CO)[C@H](O)[C@H](O)[C@H]2O)[C@H](O)[C@@H](O)[C@H]1O [TDG, thiodigalactoside, reference compound]	almost completely inhibited	inhibited	almost completely inhibited	significantly suppressed	–	–	–	–	–	–	–
Avastin: an antibody targeted against VEGF-A	had no effect	–	–	–	almost completely abolished	–	–	–	–	–	–
VEGF-C: lymphangiogenic growth factor used as positive control (protein) AHYNTEILKSIDNEWRKTQCMPREVCIDVGKEFGVATNTFFKPPCVSVYRCGGCCNSEGLQCMNTSTSYLSKTLFEITVPLSQGPKPVTISFANHTSCRCMSKLDVYRQVHSIIRR	–	–	–	–	–	significantly reduced	0.67 mm^2	1.35 mm^2	markedly induced both hemangiogenesis and lymphangiogenesis; also recorded: induce robust growth of lymphatic vessels	about 5%	about 40%
